The values below come from PubChem BioAssay (NCI).

Test systems include OVCAR-4 ovarian; SK-MEL-28 melanoma; ACHN renal; A549 NSCLC; IGROV1 ovarian; M14 melanoma; COLO 205 colon; MDA-MB-231 breast; HT29 colon; HL-60(TB) leukemia; SR leukemia.
Holding throughout (experiment): inhibition of tumour cell growth, NCI panel, 48 h

Molecules are shown by their SMILES.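 Assay format: 96-well plates, 48-hour exposure. TGI marks complete inhibition of growth.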

In the case of `Cc1cc(C)nc(NS(=O)(=O)c2ccc(NC(=O)c3cccc4c(N)c5ccccc5nc34)cc2)n1`, the TGI in the assay on OVCAR-4 ovarian, in the assay with SK-MEL-28 melanoma, with ACHN renal, in the assay on A549 NSCLC, in the assay with IGROV1 ovarian and with M14 melanoma was > 100 µM in each case. Further, the TGI in the assay with COLO 205 colon is > 100 µM.

As for `Cc1[nH]c2ccccc2c1C1=CC(=O)N(c2ccccc2)C1=O`, the TGI with MDA-MB-231 breast is > 100 µM; in the assay on SK-MEL-28 melanoma, 20.5 µM; in the assay on ACHN renal, > 100 µM; in the assay with A549 NSCLC, > 100 µM; in the assay on IGROV1 ovarian, > 100 µM; with M14 melanoma, 32.2 µM. For the same compound, the TGI is > 100 µM in the assay on COLO 205 colon, 21.8 µM with HT29 colon and 39 µM in the assay with HL-60(TB) leukemia.

As to `CC1(C)N=C(Oc2ccccc2)n2nccc2N1`, the TGI in the assay on OVCAR-4 ovarian, with SK-MEL-28 melanoma, in the assay on ACHN renal, with A549 NSCLC, with SR leukemia and in the assay with IGROV1 ovarian was > 100 µM each time. Besides, the TGI in the assay with M14 melanoma, in the assay on COLO 205 colon, in the assay with HT29 colon and in the assay on HL-60(TB) leukemia was > 100 µM in each case.

`Cc1ccc(F)c2c(=O)cc(-c3ccccc3)[nH]c12`: the TGI in the assay on OVCAR-4 ovarian, with SK-MEL-28 melanoma, in the assay on ACHN renal, in the assay with A549 NSCLC, in the assay on SR leukemia and in the assay with IGROV1 ovarian was > 100 µM each time. Further, the TGI in the assay with M14 melanoma, in the assay on COLO 205 colon, in the assay on HT29 colon and with HL-60(TB) leukemia was > 100 µM throughout.

Turning to `CC#Cc1c(C#CC)c(OC)c2c(c1OC)C(=O)c1ccccc1C2=O`, the TGI in the assay on OVCAR-4 ovarian was > 100 µM; with SK-MEL-28 melanoma it was > 100 µM; with ACHN renal, 34.8 µM; with A549 NSCLC it was > 100 µM; in the assay with SR leukemia, > 100 µM; in the assay on IGROV1 ovarian, > 100 µM. For the same compound, the TGI with M14 melanoma, with COLO 205 colon, in the assay on HT29 colon and in the assay with HL-60(TB) leukemia was > 100 µM in each case.

Turning to `CC/C=C/C(/C=C/C[C@]1(CC)C[C@H](CC)[C@H](CC(=O)O)OO1)CC` (some centres undefined), the TGI is 3 µM in the assay on OVCAR-4 ovarian; 14.3 µM in the assay on MDA-MB-231 breast; 7.41 µM in the assay with SK-MEL-28 melanoma; 3.61 µM with ACHN renal; 3.99 µM with A549 NSCLC; 0.899 µM with IGROV1 ovarian. Further, the TGI worked out at 26.5 µM in the assay on M14 melanoma, 3.86 µM in the assay on COLO 205 colon, 3.98 µM in the assay with HT29 colon and 4.76 µM in the assay with HL-60(TB) leukemia.

Consider `CSc1nc(-c2ccc(Cl)cc2)c(C#N)c(=O)[nH]1`, for which the TGI in the assay with OVCAR-4 ovarian, in the assay with MDA-MB-231 breast, in the assay with SK-MEL-28 melanoma, in the assay on ACHN renal, in the assay with A549 NSCLC and in the assay on IGROV1 ovarian was > 100 µM in each case. Besides, the TGI in the assay on M14 melanoma, in the assay on COLO 205 colon, in the assay on HT29 colon and with HL-60(TB) leukemia was > 100 µM each time.

With `c1cc(C[S+]2CCCC2)oc1C[S+]1CCCC1`, the TGI in the assay on OVCAR-4 ovarian, in the assay on MDA-MB-231 breast, in the assay with SK-MEL-28 melanoma, in the assay with ACHN renal, with A549 NSCLC and in the assay with IGROV1 ovarian was > 100 µM each time. The TGI in the assay on M14 melanoma, in the assay with COLO 205 colon and with HT29 colon was > 100 µM throughout.

As for `CCCCCCC(=O)OC[n+]1cccc(-c2c(COC(=O)NC(C)C)c(COC(=O)NC(C)C)c3n2CCC3)c1`, the TGI is > 69.1 µM in the assay with OVCAR-4 ovarian; > 100 µM in the assay with MDA-MB-231 breast; > 100 µM in the assay on SK-MEL-28 melanoma; 89.1 µM in the assay with ACHN renal; > 100 µM in the assay on A549 NSCLC; > 86.6 µM with IGROV1 ovarian. Further, the TGI was > 100 µM with M14 melanoma, > 100 µM with COLO 205 colon, > 100 µM with HT29 colon and > 48.9 µM with HL-60(TB) leukemia.

Turning to `CC[C@H](C)[C@H]1NC(=O)[C@@H](NC(=O)[C@@H](CC(C)C)N(C)C(=O)C2CCCN2C(=O)[C@H](C)O)[C@@H](C)OC(=O)[C@H](Cc2ccccc2)N(C)C(=O)[C@@H]2CCCN2C(=O)[C@H](CC(C)C)NC(=O)[C@@H](C)C(=O)[C@H](C(C)C)OC(=O)C[C@@H]1O` (some centres undefined), the TGI in the assay on OVCAR-4 ovarian is 0.0078 µM; in the assay on SK-MEL-28 melanoma it was 0.00828 µM; with ACHN renal it was < 0.00625 µM; with M14 melanoma, 0.0257 µM; with COLO 205 colon it was 0.0769 µM; in the assay on HT29 colon, 0.0205 µM. For the same compound, the TGI with HL-60(TB) leukemia is > 62.5 µM.

Consider `CCCOP(=S)(N1CC1)N1CC1`, for which the TGI in the assay with OVCAR-4 ovarian, with SK-MEL-28 melanoma, in the assay with ACHN renal, with A549 NSCLC, in the assay on SR leukemia and with IGROV1 ovarian was > 100 µM each time. Besides, the TGI with M14 melanoma, with COLO 205 colon, in the assay with HT29 colon and in the assay on HL-60(TB) leukemia was > 100 µM each time.

As for `COc1nc(OC)nc(Sc2ccc(Sc3ccc(Sc4nc(OC)nc(OC)n4)cc3)cc2)n1`, the TGI in the assay with OVCAR-4 ovarian, in the assay with SK-MEL-28 melanoma, with ACHN renal, with A549 NSCLC, with SR leukemia and in the assay with IGROV1 ovarian was > 100 µM in each case. In addition, the TGI with M14 melanoma, in the assay with COLO 205 colon, with HT29 colon and in the assay on HL-60(TB) leukemia was > 100 µM throughout.

As for `O=C1Cc2ccccc2CCc2ccsc21`, the TGI in the assay with OVCAR-4 ovarian, with SK-MEL-28 melanoma, in the assay with A549 NSCLC, in the assay with SR leukemia, with IGROV1 ovarian and in the assay with M14 melanoma was > 100 µM each time. Further, the TGI in the assay with COLO 205 colon, with HT29 colon and in the assay with HL-60(TB) leukemia was > 100 µM throughout.

Regarding `COC(=O)CNCC1OC2OC(C)(C)OC2C1N=[N+]=[N-]` (centres undefined), the TGI in the assay on OVCAR-4 ovarian, in the assay on SK-MEL-28 melanoma, in the assay on ACHN renal, with A549 NSCLC, in the assay on SR leukemia and in the assay on IGROV1 ovarian was > 100 µM each time. Also, the TGI in the assay with HT29 colon and in the assay on HL-60(TB) leukemia was > 100 µM throughout.
